Values of other authors as cited in publication PMC3848336, “Aurora Isoform Selectivity: Design and Synthesis of Imidazo[4,5-b]pyridine Derivatives as Highly Selective Inhibitors of Aurora-A Kinase in Cells” (Journal of Medicinal Chemistry, 2013).

System: Aurora-A/N-Myc complex
Set-up: method as in PMID 23792191
Conditions: cited from earlier work
In the case of O=C(O)[C@]1(Cc2cccc(Nc3nccs3)n2)CC[C@@H](Oc2cccc(Cl)c2F)CC1 [MK-5108], the “disruption of the Aurora-A/N-Myc complex” value is listed as “not disrupted”. In the case of O=C(O)c1ccc(Nc2ncc3c(n2)-c2ccc(Cl)cc2C(c2c(F)cccc2F)=NC3)cc1 [MLN8054], the “disruption of the Aurora-A/N-Myc complex” value is given as “disrupt the Aurora-A/N-Myc complex”. In the case of COc1cc(Nc2ncc3c(n2)-c2ccc(Cl)cc2C(c2c(F)cccc2OC)=NC3)ccc1C(=O)O [MLN8237], the “disruption of the Aurora-A/N-Myc complex” value is listed as “disrupt the Aurora-A/N-Myc complex”.
